Where two headings read alike, the source gives them in different places.
Assays:
[1] = test system: flies
[2] = test system: Aedes aegypti mosquitoes; assay: Olfactometer vapor phase repellency; format: in vivo; details: FIG. 1
Excerpt: As frequently seen in homologous series of insect repellents (Skinner, W. A. and Johnson, H. L. The design of insect repellents. In: Drug Design, Vol. 10, E J Ariens, Ed., Academic Press, New York, pp. 277-305, 1980), activity at lower chain length is limited by lack of persistence due to high volatility. Activity at higher chain length is limited by lack of volatility, as mosquito repellents are required to have a minimum effective evaporation rate (Reifenrath, W. G. and Robinson, P. B. In Vitro Skin Evaporation and Penetration Characteristics of mosquito repellents. J. Pharm. Sci, 71:1014-1018, 1982; Reifenrath, W. G. and Spencer, T. S. Evaporation and penetration from skin. In: Percutaneous Absorption Mechanisms Methodology Drug Delivery, R L Bronaugh and H I Maibach, Eds., 1st Ed., Marcel Dekker, New York, pp. 305-325, 1985).
The straight chain fatty acids octanoic, nonanoic, decanoic, undecanoic, and lauric are designated as C8 through C12, respectively; 3-methylpentanoic acid as 3MPENTAN, 3-methyl-2-pentenoic acid as 3M2PENTEN, 2-octenoic acid as 2OCTEN, 3-methyl-2-octenoic acid as 3M2OCTEN, and 4-methyloctanoic acid as 4MOCTAN. N,N-Diethyl-m-toluamide is designated as DEET.

[3] = test system: eggs of Aedes aegypti; details: Cline 1972; cited from earlier work
[4] = test system: house fly larvae; details: Levinson and Simon Ascher 1954; cited from earlier work
[5] = 20° C.; cited from earlier work
[6] = test system: Aedes aegypti mosquitoes
Description: Fifteen female Aedes aegypti mosquitoes were placed in the dishes and their fate observed over a 48 hour period.
To further investigate the incapacitating and lethal effect of the C8910 composition, water dispersions of the same formulation of C8910 were tested in the laboratory against Aedes aegypti mosquitoes. Graded dilutions of C8910/Kaolin-P were prepared by dispersing the powder in water (2 grams of powder in 100 ml of water, the concentration used in the field) where the lowest concentration was 0.0075% (Table 1). One ml of each dispersion was evenly pipetted over a disk of filter paper (9 cm diameter, Whatman No. 1) contained in disposable petri dishes. Approximately 15 female Aedes aegypti mosquitoes, 6-10 days of age, were placed in the Petri dishes and covered to prevent mosquito escape. The dishes were maintained in an environmental chamber (76-80° F. and approximately 60% humidity) and observations were made of incapacitation and mortality at various times after treatments (Table 1).

[7] = emulsion formulations; cited from earlier work
[8] = test system: Aedes aegypti instar IV larvae and pupae; details: Quraishi and Thorsteinson 1965; cited from earlier work
[9] = test system: Aedes aegypti; assay: Minimum effective dose to repel mosquitoes, applied to the skin; format: in vivo
Description: Notes: • 1. Even at the lowest dose (1.18 ug/cm2), there are behavioral effects from […]. […] After 16 minutes exposure, mosquitoes were transferred to fresh plates containing only distilled water. […] […] and DEET (N,N-diethyl-m-toluamide) have similar potencies to repel Aedes aegypti when both are applied to the skin. The minimum effective dose (MED) of […] to repel mosquitoes is estimated at 25 ug/cm^2, the measured MED value for DEET.

[10] = 0.3000% in water dispersion, dose 47 ug/cm2

Q: For CCN(CC)CC(=O)Nc1c(C)cccc1C [lidocaine free base, lidocaine], which fly incapacitation ([1]; freshly prepared aqueous emulsions 47 ug/cm^2 or 15% concentration in mineral oil) is on record?
A: The fly incapacitation was “did not cause fly incapacitation”.

Q: With CCCCCCCCC(=O)O [C9, nonanoic acid] as the compound, how does the repellency in olfactometer [2] read?
A: The repellency in olfactometer was “at or near the top of the repellency”.

Q: And the ovicidal activity [3]?
A: Its ovicidal activity is “ovicidal activity”.

Q: Which ovicidal activity [3] does the source give for C=CCCCCCCCCC(=O)O [undecylenic] here?
A: Its ovicidal activity is “ovicidal activity”.

Q: Which “larvicidal activity for housefly larvae” value [4] does the source give for CCCCCCCCCCC(=O)O [undecanoic acid] here?
A: Its value is “declining activity”.

Q: Which vapor pressure [5] does the source give for CC1(C)C(C=C(Cl)Cl)C1C(=O)OCc1cccc(Oc2ccccc2)c1 (stereo not shown) [permethrin] here?
A: Its vapor pressure is “about 10^−8 mm Hg”.

Q: And the reversibility of incapacitation ([1]; dose of 4.7 ug/cm^2)?
A: Its reversibility of incapacitation is “irreversible”.

Q: And the reversibility of incapacitation ([6]; dose of 4.7 ug/cm^2)?
A: Its reversibility of incapacitation is “irreversible”.

Q: What about the skin absorption [7] of the same compound?
A: Its skin absorption is “about 30%”.

Q: Which toxicity to flies ([1]; test of acidic pH) does the source give for CC(O)C(=O)O (stereo not shown) [Lactic Acid, lactic acid] here?
A: The toxicity to flies was “nontoxic to flies”.

Q: What about the “% Incapac. in 10 m exp.” value [6, 10] of the same compound?
A: Its value is 0%.

Q: What about the “% Incapac. in 25 m exp.” value [6, 10] of the same compound?
A: Its value is 0%.

Q: And the “% Incapac. in 24 h exp.” value [6, 10]?
A: Its value is 17%.

Q: And the “% motality at 24 hours” value [6, 10]?
A: The value was 17%.

Q: And the “% motality at 48 hours” value [6, 10]?
A: Its value is 17%.

Q: And the “% Incapac. in 10 m exp.” value ([6]; 0.3000% in water dispersion, dose 47 ug/cm2, listed as lactic acid)?
A: Its value is “no incapacitation”.

Q: And the “number dead, noted beside % Incapac. in 24 h exp.” value ([6]; 0.3000%, dose 47 ug/cm2)?
A: The value was “(2 dead)”.

Q: For CCCCCCCCCC(=O)O [C10, decanoic acid], which repellency in olfactometer [2] is on record?
A: The repellency in olfactometer was “at or near the top of the repellency”.

Q: With CCCCCCCCCCCC(=O)O [Lauric acid, lauric acid] as the compound, how does the “larvicidal activity for housefly larvae” value [4] read?
A: Its value is “declining activity”.

Q: What about the “toxicity to instar IV larvae and pupae” value [8] of the same compound?
A: Its value is “not”.

Q: And the toxicity to flies ([1]; EC formulation)?
A: Its toxicity to flies is “non-toxic”.

Q: Which repellency in olfactometer [2] does the source give for CCCCCCCC(=O)O [C8, octanoic acid] here?
A: The repellency in olfactometer was “at or near the top of the repellency”.

Q: What about the ovicidal activity [3] of the same compound?
A: The ovicidal activity was “ovicidal activity”.

Q: Which results are given for CCN(CC)C(=O)c1cccc(C)c1 [DEET, N,N-diethyl-m-toluamide]?
A: immediate incapacitation ([1]; 47 ug/cm^2): did not involve immediate incapacitation; mortality at 24 hours ([1]; 47 ug/cm^2): did cause fly and mosquito mortality; immediate incapacitation ([6]; 47 ug/cm^2): did not involve immediate incapacitation; mortality at 24 hours ([6]; 47 ug/cm^2): did cause fly and mosquito mortality; minimum effective dose (MED) to repel mosquitoes [9]: 25 ug/cm^2
